From patent US9051342B2 (priority 2004, dated 2015)

Columns and labels:
[1] = test system: luciferase with nonsense mutation in a specific codon context (UGAA, UGAC, UAAA or UAAC); test: Western blot of luciferase protein produced by suppression of the nonsense mutation; assay type: cell-based, Human embryonic kidney cells (293 cells); details: 293 cells treated with compound, continuation lines list further codon contexts
Excerpt: Nonsense suppression activity in an assay as described above is shown in the Table 3 below, for a construct with a UGA nonsense mutation at position 190, followed by a cytosine nucleotide in-frame, (UGAC); for a construct with UAG nonsense mutation at position 190, followed by an adenine nucleotide in-frame, (UAGA); for a construct with […] nonsense mutation at position 190, followed by an adenine nucleotide in-frame, (UAAA); and a construct with a UAA nonsense mutation at position 190, followed by an cytosine nucleotide in-frame, (UAAC). Also included in Table 3 is a column (“western blot”) indicating whether treatment of cells with the indicated compound suppresses the nonsense mutation in a specific codon context (UGAA, UGAC, UAAA or UAAC) in luciferase and results in production of luciferase protein as determined by a positive signal on a western blot. A positive result in the western blot assay is indicated by a “+” and the nonsense codon and context of the codon that is suppressed.
Another assay of the present invention can evaluate compounds that promote nonsense mutation suppression. The luciferase constructs described above in FIG. 1 are engineered to harbor two epitope tags in the N-terminus of the luciferase protein. Based on luciferase protein production, these constructs qualitatively assess the level of translation-readthrough. The presence of the full-length luciferase protein produced by suppression of the premature termination codon is measured by immunoprecipitation of the suppressed luciferase protein (using an antibody against a His tag) followed by western blotting using an antibody against the second epitope (the Xpress™ epitope; Invitrogen®; Carlsbad, Calif.). These constructs are depicted in FIG. 2.
Cells that harbor the constructs of FIG. 2 show increased full-length protein production when treated with a compound of the present invention. After treatment for 20 hours, cells containing the constructs of FIG. 2 are collected and an antibody recognizing the His epitope is used to immunoprecipitate the luciferase protein. Following immunoprecipitation, western blotting is performed using the antibody to the Xpress™ epitope (Invitrogen®; Carlsbad, Calif.) to detect the truncated luciferase (produced when no nonsense suppression occurs) and to detect the full-length protein (produced by suppression of the nonsense codon). Treatment of cells with a test compound produces full-length protein and not a readthrough protein (See e.g., FIG. 3). The readthrough protein is produced if suppression of the normal termination codon occurs. Compounds of the present invention suppress the premature, i.e. nonsense mutation, but not the normal termination codon in the luciferase mRNA.

SMILES | melting point | also measured
Cc1ccc(-n2cc(-c3cccc(C(=O)O)c3)cn2)cc1C [Compound 237, 3-[1-(3,4-Dimethyl-phenyl)-1H-pyrazol-4-yl]-benzoic acid] | 196 to 197 °C | western blot: production of luciferase protein; + and the codon context that is suppressed [1]: +; UGAC
O=C(O)c1ccc(-c2ccn(-c3ccc(C(F)(F)F)cc3)c2)cc1 [Compound 105, 4-[1-(4-Trifluoromethyl-phenyl)-1H-pyrrol-3-yl]-benzoic acid] | 315 to 317 °C | western blot: production of luciferase protein; + and the codon context that is suppressed ([1]; UAAA codon context construct): UAAA; western blot: production of luciferase protein; + and the codon context that is suppressed ([1]; UGAA codon context construct): +; UGAA;; western blot: production of luciferase protein; + and the codon context that is suppressed ([1]; UGAC codon context construct): UGAC;
O=C(O)c1cccc(-c2ccn(-c3ccc(OC(F)(F)F)cc3)n2)c1 [Compound 66, 3-[1-(4-Trifluoromethoxy-phenyl)-1H-pyrazol-3-yl]-benzoic acid] | 171 to 174 °C | western blot: production of luciferase protein; + and the codon context that is suppressed ([1]; UAAC codon context construct): UAAC; western blot: production of luciferase protein; + and the codon context that is suppressed ([1]; UGAC codon context construct): +UGAC;
CC(C)c1ccc(-n2cc(-c3ccc(C(=O)O)cc3)cn2)cc1 [Compound 229, 4-[1-(4-Isopropyl-phenyl)-1H-pyrazol-4-yl]-benzoic acid] | 215 to 218 °C | 
O=C(O)c1cccc(-c2ncn(-c3ccc(N4CCCC4=O)cc3)n2)c1 [Compound 43, 3-{1-[4-(2-Oxo-pyrrolidin-1-yl)-phenyl]-1H-[1,2,4]triazol-3-yl}-benzoic acid] | 270 to 273 °C | 
N#Cc1cccc(-c2nn(-c3ccc(C(=O)O)cc3)c(=O)o2)c1 [Compound 280, 4-[5-(3-cyanophenyl)-2-oxo-1,3,4-oxadiazol-3(2H)-yl]benzoic acid] | 294 to 295 °C (dec.) | 
O=C(O)c1ccc(-n2cc(-c3cccc(Br)c3)cn2)cc1 [Compound 89, 4-[4-(3-Bromo-phenyl)-pyrazol-1-yl]-benzoic acid] | 247 to 248 °C | 
O=C(O)c1ccc(-c2ccn(-c3ccccc3OC(F)(F)F)c2)cc1 [Compound 199, 4-[1-(2-Trifluoromethoxy-phenyl)-1H-pyrrol-3-yl]-benzoic acid] | 164 to 165 °C | 
O=C(O)c1cccc(-c2cnn(-c3ccc(C(F)(F)F)cc3)c2)c1 [Compound 235, 3-[1-(4-Trifluoromethyl-phenyl)-1H-pyrazol-4-yl]-benzoic acid] | 218 to 220 °C | 
O=C(O)c1cccc(-n2ccc(-c3cccc(F)c3)n2)c1 [Compound 93, 3-[3-(3-Fluoro-phenyl)-pyrazol-1-yl]-benzoic acid] | 173 to 174 °C | 
O=C(O)c1cccc(-n2cc(-c3ccc([N+](=O)[O-])cc3)cn2)c1 [Compound 101, 3-[4-(4-Nitro-phenyl)-pyrazol-1-yl]-benzoic acid] | 274 to 276 °C | 
O=C(O)c1ccc(-n2cc(-c3ccccc3F)nn2)cc1 [Compound 264, 4-[4-(2-Fluoro-phenyl)-[1,2,3]triazol-1-yl]-benzoic acid] | 292 to 294 °C | 
COc1ccc(-n2cc(-c3cccc(C(=O)O)n3)cn2)cc1 [Compound 53, 6-[1-(4-Methoxy-phenyl)-1H-pyrazol-4-yl]-pyridine-2-carboxylic acid] | 122 to 123 °C | 
O=C(O)c1ccc(-n2cc(-c3ccc(F)cc3F)nn2)cc1 [Compound 268, 4-[4-(2,4-Difluoro-phenyl)-[1,2,3]triazol-1-yl]-benzoic acid] | 312 to 313 °C | 
CC(C)c1ccc(-c2nn(-c3cccc(C(=O)O)c3)c(=S)o2)cc1 [Compound 283, 3-[5-(4-Isopropyl-phenyl)-2-thioxo-[1,3,4]oxadiazol-3-yl]-benzoic acid] | 215 to 217 °C | 
Cc1cccc(-n2ccc(-c3cccc(C(=O)O)c3)n2)c1 [Compound 167, 3-(1-m-Tolyl-1H-pyrazol-3-yl)-benzoic acid] | 162 to 164 °C | 
CN(C)c1ccc(-c2cnn(-c3cccc(C(=O)O)c3)c2)cc1 [Compound 110, 3-[4-(4-Dimethylamino-phenyl)-pyrazol-1-yl]-benzoic acid] | 224 to 225 °C | 
O=C(O)c1ccc(-n2cc(-c3ccccc3)cn2)cc1 [Compound 99, 4-(4-Phenyl-pyrazol-1-yl)-benzoic acid] | 267 to 269 °C | 
O=C(O)c1cccc(-n2cc(-c3nc4ccccc4o3)cn2)c1 [Compound 121, 3-(4-Benzooxazol-2-yl-pyrazol-1-yl)-benzoic acid] | 331 to 333 °C | 
COc1cccc(-n2ccc(-c3cccc(C#N)c3)n2)c1 [Compound 59, 3-[1-(3-Methoxy-phenyl)-1H-pyrazol-3-yl]-benzonitrile] | 100 to 101 °C | 
O=C(O)c1cccc(-c2ccn(-c3ccc(C(F)(F)F)cc3)n2)c1 [Compound 67, 3-[1-(4-Trifluoromethyl-phenyl)-1H-pyrazol-3-yl]-benzoic acid] | 225 to 227 °C | 
O=C(O)c1cccc(-c2ncn(-c3ccccc3)n2)c1 [Compound 37, 3-(1-Phenyl-1H-[1,2,4]triazol-3-yl)-benzoic acid] | 257 to 259 °C | 
O=C(O)c1cccc(-c2ccn(-c3cccc(OCc4ccccc4)c3)c2)c1 [Compound 246, 3-[1-(3-Benzyloxy-phenyl)-1H-pyrrol-3-yl]-benzoic acid] | 142 to 144 °C | 
COc1ccccc1-n1ccc(-c2cccc(C(=O)O)c2)c1 [Compound 200, 3-[1-(2-Methoxy-phenyl)-1H-pyrrol-3-yl]-benzoic acid] | > 350 °C | 
O=C(O)c1cccc(-c2cnn(-c3ccc(F)cc3)c2)c1 [Compound 181, 3-[1-(4-Fluoro-phenyl)-1H-pyrazol-4-yl]-benzoic acid] | 235 to 237 °C | 
COc1ccc2c(c1)-c1nn(-c3ccc(C(=O)O)cc3)cc1CC2 [Compound 145, 4-(8-Methoxy-4,5-dihydro-benzo[g]indazol-2-yl)-benzoic acid] | 290 to 292 °C | 
